According to article PMC10484922, “Discovery of a selective and biologically active low-molecular weight antagonist of human interleukin-1β” (Nature Communications, 2023):

Key:
[1] = test system: HEK-Blue IL-1β cells stimulated with hIL-1α; assay: HEK293 reporter gene assay, hIL-1α as trigger; assay type: cell-based, human; details: inhibitor 3nM
Description: (§1) We used HEK-Blue™ IL-1β cells that respond specifically to IL-1 (# hkb-il1b, InvivoGen). These cells can detect IL-1α and IL-1β, as these cytokines bind to the same receptor, IL-1R1. They express a Seap reporter gene under the control of the IFN-β minimal promoter fused to five NF-kappaB and five AP-1 binding sites. Thirty microliters (300,000 cells/ml) per well of a 384-well plate were plated overnight. Cells were then stimulated with graded concentrations of cytokines (hIL-1α or hIL-1β) in the absence or presence of canakinumab (Ilaris®, ILARI LYVI 150MG 22GLW.012, batch U003 0409)[22], anakinra (Kineret®, 100 mg/0.67 ml injectable solution, Sobi)[23], or compound (S)-2 (compounds were pre-mixed for 1 h with the cytokine prior to addition to cells) and further incubated overnight before assessment of Seap activity.

[2] = test system: normal human dermal fibroblasts stimulated with hIL-1α; assay: Human fibroblast IL-6 release assay, hIL-1α stimulated; assay type: cell-based; set-up: IL-1alpha (mean, SD): mean readout (IL-6 release): unit not given here; details: Figure 3c; for Mean OD (OD 450nm): compound 1 nM; for IL-1alpha (mean, SD): mean readout (IL-6 release): compound @ 1nM
Description: as §1
Normal human dermal fibroblasts (NHDF) from Clonetics^TM (LONZA, Cat # CC-2509 (NHDF-Neo), Lot # 0000234242, used at passage ≤14) were seeded at a density of 5000 cells/well in 100 μL of culture medium using 96-well plates (flat bottom, TCT). Treatment with cytokines/compounds was performed as described above. Cells were incubated for another 6 h and were subsequently spun down (320g/3 min). IL-6 was measured in the supernatant by ELISA (BioLegend, # 430503) or HTRF (Cisbio, #62HIL06PEH).

[3] = test system: HEK-Blue IL-1β cells stimulated with hIL-1β; assay: HEK293 reporter gene assay, hIL-1β as trigger; assay type: cell-based, human; details: inhibitor 3nM
Description: as §1

With “canakinumab: anti-hIL-1β antibody [reference compound]” the “reporter gene assay signal, mean (Figure 3d)” value (“reporter gene assay signal” below) ([1]; IL-1alpha 3.04596 pg/ml) was 0.08, the “reporter gene assay signal” value ([1]; IL-1alpha 6.09192 pg/ml) was 0.12 and the “reporter gene assay signal” value ([1]; IL-1alpha 12.1838 pg/ml) was 0.19. The “reporter gene assay signal” value ([1]; IL-1alpha 24.3677 pg/ml) was 0.36, the “reporter gene assay signal” value ([1]; IL-1alpha 48.7353 pg/ml) was 0.66 and the “reporter gene assay signal” value ([1]; IL-1alpha 97.4707 pg/ml) was 1.07. The “reporter gene assay signal” value ([1]; IL-1alpha 194.941 pg/ml) was 1.44, the “reporter gene assay signal” value ([1]; IL-1alpha 389.883 pg/ml) was 1.69 and the “reporter gene assay signal” value ([1]; IL-1alpha 779.766 pg/ml) was 1.8. The “reporter gene assay signal” value ([1]; IL-1alpha 1559.53 pg/ml) was 1.86, the “reporter gene assay signal” value ([1]; IL-1alpha 3119.06 pg/ml) was 1.88 and the “reporter gene assay signal” value ([1]; IL-1alpha 6238.12 pg/ml) was 1.91. The “reporter gene assay signal” value ([1]; IL-1alpha 12476.2 pg/ml) was 1.92, the “reporter gene assay signal” value ([1]; IL-1alpha 24952.5 pg/ml) was 2 and the “reporter gene assay signal” value ([1]; IL-1alpha 49905 pg/ml) was 1.98. For the same substance, the “Mean OD (OD 450nm)” value ([2]; hu IL-1A 0 pg/mL) was 0.041, the “Mean OD (OD 450nm)” value ([2]; hu IL-1A 40 pg/mL) was 0.388 and the “Mean OD (OD 450nm)” value ([2]; hu IL-1A 80 pg/mL) was 0.589. The “Mean OD (OD 450nm)” value ([2]; hu IL-1A 120 pg/mL) was 0.693, the “Mean OD (OD 450nm)” value ([2]; hu IL-1A 160 pg/mL) was 0.774 and the “Mean OD (OD 450nm)” value ([2]; hu IL-1A 200 pg/mL) was 0.785. The “IL-1alpha (mean, SD): mean readout (IL-6 release)” value (“IL-1alpha (mean, SD): mean readout” for short) ([2]; hu IL-1a 0 pg/mL) was 0, the “IL-1alpha (mean, SD): mean readout” value ([2]; hu IL-1a 40 pg/mL) was 2114.2 and the “IL-1alpha (mean, SD): mean readout” value ([2]; hu IL-1a 80 pg/mL) was 3604.7. For the same substance, the “IL-1alpha (mean, SD): mean readout” value ([2]; hu IL-1a 120 pg/mL) was 4369.8, the “IL-1alpha (mean, SD): mean readout” value ([2]; hu IL-1a 160 pg/mL) was 4969.2 and the “IL-1alpha (mean, SD): mean readout” value ([2]; hu IL-1a 200 pg/mL) was 5051.1. The “reporter gene assay signal” value ([3]; IL-1beta 3.04596 pg/ml) was 0.06, the “reporter gene assay signal” value ([3]; IL-1beta 6.09192 pg/ml) was 0.06 and the “reporter gene assay signal” value ([3]; IL-1beta 12.1838 pg/ml) was 0.06. The “reporter gene assay signal” value ([3]; IL-1beta 24.3677 pg/ml) was 0.06, the “reporter gene assay signal” value ([3]; IL-1beta 48.7353 pg/ml) was 0.06 and the “reporter gene assay signal” value ([3]; IL-1beta 97.4707 pg/ml) was 0.07. For the same substance, the “reporter gene assay signal” value ([3]; IL-1beta 194.941 pg/ml) was 0.08, the “reporter gene assay signal” value ([3]; IL-1beta 389.883 pg/ml) was 0.1 and the “reporter gene assay signal” value ([3]; IL-1beta 779.766 pg/ml) was 0.2. For the same substance, the “reporter gene assay signal” value ([3]; IL-1beta 1559.53 pg/ml) was 0.42, the “reporter gene assay signal” value ([3]; IL-1beta 3119.06 pg/ml) was 0.74 and the “reporter gene assay signal” value ([3]; IL-1beta 6238.12 pg/ml) was 1.18. For the same substance, the “reporter gene assay signal” value ([3]; IL-1beta 12476.2 pg/ml) was 1.55, the “reporter gene assay signal” value ([3]; IL-1beta 24952.5 pg/ml) was 1.78 and the “reporter gene assay signal” value ([3]; IL-1beta 49905 pg/ml) was 1.85.
